Assay results: patent publication US20080262041A1, “Beta-Lactams for Treatment of Cns Disorders” (priority 2003, published 2008)
Where two headings read alike, the source gives them in different places.

Columns and labels:
[1] = target: T1, recombinant human NK1 receptors (Homo sapiens, UniProt P25103); test: NK1 receptor binding affinity, scintillation proximity assay (SPA), displacement of [125I]Tyr8-Substance P; settings: average of at least two determinations, CHO cell membranes, read-out: pKi (negative logarithm of the inhibition constant), NK1 receptor SPA binding (converted)
T1 construct: expressed in transfected cells; host or cells: CHO cells (membranes)
From the text: NK1-receptor binding affinity has been determined in vitro in a binding Scintillation proximity assay (SPA) by measuring the compounds' ability to displace [^125I]Tyr8-Substance P (SP) from recombinant human NK1 receptors stably expressed in Chinese Hamster Ovary (CHO) cell membranes prepared by using a modification of the method described by Beattie D. T. et al. (Br. J. Pharmacol, 116:3149-3157, 1995). Briefly, polystyrene Leadseeker WGA-SPA beads (Amersham Biosciences) were mixed with cell membranes in a bead/membrane ratio of 50:1 (w/w) in assay buffer (75 mM Tris pH 7.8, 75 mM NaCl, 4 mM MnCl2, 1 mM EDTA, 0.05% Chaps, 1 mM PMSF). The mixture was placed on ice for 30 minutes to allow the formation of membrane/bead complex before BSA was added to a final concentration of 1%. After another 30 minutes incubation on ice, the bead/membrane complex was washed twice and suspended in assay buffer. [^125I]Tyr8-Substance P (2200 Ci/mmol, PerkinElmer) was then added to the bead/membrane complex with a final concentration of 0.4 nM. 30 ul of the resulting mixture was then dispensed to each well of Nalgen NUNC 384-well plate with 1 ul compound pre-dispensed in DMSO. The plates were then sealed and pulse centrifuged at 1100 rpm. After 3 hours incubation at room temperature with shaking, the plates were centrifuged for 2 min at 1100 rpm and measured in Viewlux imager (PerkinElmer) for 5 minutes with a 618-nm filter. Inhibition of [^125I]Tyr8-Substance P binding to NK1-receptors was measured by the reduction of luminescent signal. IC50 values of each compound were determined by an 11-point 3×-dilution inhibition curve. pKi values were calculated using the KD of [^125I]Tyr8-Substance P determined in a separate experiment.
The affinity of the compound of the invention for the NK1 receptor was determined using the NK1 receptor binding affinity method (Scintillation proximity assay (SPA)) measured in vitro by the compounds' ability to displace [^125I]Tyr8-Substance P (SP) from recombinant human NK1 receptors expressed in Chinese Hamster Ovary (CHO) cell membranes. The affinity values are expressed as negative logarithm of the inhibition constant (pKi) of displacer ligands.

[2] = target: T2, recombinant human serotonin transporter (Homo sapiens, UniProt P31645); test: hSERT binding affinity, displacement of [3H]-citalopram
T2 construct: expressed in transfected cells; host or cells: porcine LLCPK cells stably transfected with hSERT (membranes)
Procedure: SERT binding affinity has been determined in vitro by the compounds' ability to displace [^3H]-citalopram from hSERT-LLCPK cell membranes. For the binding reaction, a final concentration of 0.25 nM of [^3H] citalopram (84 Ci/mmol, Amersham) was incubated with 3-5 μg/ml of cell membrane and the compound to be tested at different concentrations (7 concentration points in duplicate) in 50 mM Tris HCl, pH 7.7, containing 120 mM NaCl, 5 mM KCl, 10 μM pargyline and 0.1% ascorbic acid. The reaction was performed for 120 min at 22° C. and was terminated through GF/B Unifilter (pre-soaked in 0.5% PEI) using a Cell Harvester (Tomtec). Scintillation fluid was added to each filtered spot and radioactivity was determined using a scintillation counter (TopCount (Packard)). Non-specific binding was determined using paroxetine (10 μM) and represents about 2-5% of the total binding. Competition experiments were conducted with duplicate determination for each point. Msat601 software package was used to elaborate the competition binding data. IC50 values were converted to Ki values using the Cheng-Prusoff equation and by using the KD of [^3H]citalopram determined in separate experiments.
The affinity of the compounds of the invention for the serotonin transporter was determined using the hSERT binding affinity method and measuring in vitro the compounds' ability to displace [^3H]-citalopram from recombinant human serotonin transporter expressed in Porcine Epithelial Kidney LLCPK cell membranes. The affinity values are expressed as negative logarithm of the inhibition constant of displacer ligands (pKi).

[3] = average of at least two determinations, [3H]-citalopram, LLCPK cell membranes, read-out: pKi, serotonin transporter binding (converted)

T2 sequence (P31645 whole entry): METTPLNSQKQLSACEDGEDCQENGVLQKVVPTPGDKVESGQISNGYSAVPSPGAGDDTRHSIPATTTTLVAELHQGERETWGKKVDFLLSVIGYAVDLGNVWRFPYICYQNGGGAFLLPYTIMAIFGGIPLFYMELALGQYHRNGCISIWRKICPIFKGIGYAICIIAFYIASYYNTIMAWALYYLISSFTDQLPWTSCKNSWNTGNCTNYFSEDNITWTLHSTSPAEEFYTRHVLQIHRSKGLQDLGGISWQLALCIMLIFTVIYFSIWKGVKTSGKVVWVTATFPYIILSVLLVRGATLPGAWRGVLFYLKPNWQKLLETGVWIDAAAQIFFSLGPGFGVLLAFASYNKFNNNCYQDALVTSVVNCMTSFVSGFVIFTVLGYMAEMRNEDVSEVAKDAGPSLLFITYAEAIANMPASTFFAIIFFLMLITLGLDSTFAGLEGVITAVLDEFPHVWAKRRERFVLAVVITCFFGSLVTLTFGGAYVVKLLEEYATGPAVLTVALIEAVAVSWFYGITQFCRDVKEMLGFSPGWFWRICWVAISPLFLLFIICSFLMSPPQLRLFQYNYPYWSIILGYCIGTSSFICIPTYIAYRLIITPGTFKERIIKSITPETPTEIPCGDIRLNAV
T1 sequence (P25103 whole entry): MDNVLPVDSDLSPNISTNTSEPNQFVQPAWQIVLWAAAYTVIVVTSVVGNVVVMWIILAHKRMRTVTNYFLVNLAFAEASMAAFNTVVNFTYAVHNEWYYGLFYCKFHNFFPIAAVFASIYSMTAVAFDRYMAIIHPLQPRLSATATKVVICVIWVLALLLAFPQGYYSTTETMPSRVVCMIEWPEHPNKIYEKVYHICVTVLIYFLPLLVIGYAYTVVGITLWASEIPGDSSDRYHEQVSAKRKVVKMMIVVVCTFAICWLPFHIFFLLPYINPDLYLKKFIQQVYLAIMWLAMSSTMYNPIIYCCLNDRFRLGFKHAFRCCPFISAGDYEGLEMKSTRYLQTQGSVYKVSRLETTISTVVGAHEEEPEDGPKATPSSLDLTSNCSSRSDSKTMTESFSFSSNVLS

Row | Compound | Ki [1] [nM] | Ki [2] [nM] | Ki [2, 3] [nM]
1 | CN1CCC(C2=CCN(Cc3cc(C#N)cc4ccccc34)C2=O)(c2ccc(F)cc2)CC1 [Example 16, 4-({3-[4-(4-Fluorophenyl)-1-methyl-4-piperidinyl]-2-oxo-2,5-dihydro-1H-pyrrol-1-yl}methyl)-2-naphthalenecarbonitrile] | 2.24 to 8.51 | 1.26 to 9.12 | –
2 | C[C@@H](c1cc(Cl)cc2ccccc12)N1CC=C(C2(c3ccc(F)cc3)CCNCC2)C1=O [Example 6, 1-[(1S)-1-(3-Chloro-1-naphthalenyl)ethyl]-3-[4-(4-fluorophenyl)-4-piperidinyl]-1,5-dihydro-2H-pyrrol-2-one] | 2.24 to 8.51 | – | 1.26 to 9.12
3 | CN1CCC(C2=CCN(Cc3cc(Cl)cc(Cl)c3)C2=O)(c2ccc(F)cc2)CC1 [Example 3, 1-[(3,5-Dichlorophenyl)methyl]-3-[4-(4-fluorophenyl)-1-methyl-4-piperidinyl]-1,5-dihydro-2H-pyrrol-2-one] | 2.24 to 8.51 | 1.26 to 9.12 | –
4 | CC(c1cc(Cl)cc(Cl)c1)N1CC=C(C2(c3ccc(F)cc3)CCN(C)CC2)C1=O (single isomer, unassigned) [Example 11, 1-[1-(3,5-Dichlorophenyl)ethyl]-3-[4-(4-fluorophenyl)-1-methyl-4-piperidinyl]-1,5-dihydro-2H-pyrrol-2-one] | 2.24 to 8.51 | 1.26 to 9.12 | –
5 | C[C@H](c1cc(Cl)cc2ccccc12)N1CC=C(C2(c3ccc(F)cc3)CCN(C)CC2)C1=O [Example 15, 1-[(1R)-1-(3-Chloro-1-naphthalenyl)ethyl]-3-[4-(4-fluorophenyl)-1-methyl-4-piperidinyl]-1,5-dihydro-2H-pyrrol-2-one] | 2.24 to 8.51 | 1.26 to 9.12 | –
6 | CC(c1cc(Cl)cc(Cl)c1)N1CC=C(C2(c3ccc(F)cc3)CCNCC2)C1=O (single isomer, unassigned) [Example 5, 1-[1-(3,5-Dichlorophenyl)ethyl]-3-[4-(4-fluorophenyl)-4-piperidinyl]-1,5-dihydro-2H-pyrrol-2-one] | 2.24 to 8.51 | – | 1.26 to 9.12
7 | O=C1C(C2(c3ccc(F)cc3)CCNCC2)=CCN1Cc1cc(Cl)cc(Cl)c1 [Example 1, 1-[(3,5-Dichlorophenyl)methyl]-3-[4-(4-fluorophenyl)-4-piperidinyl]-1,5-dihydro-2H-Pyrrol-2-one] | 2.24 to 8.51 | – | 1.26 to 9.12
